Laboratory results: patent US9557338B2 (SIGNAL PHARMACEUTICALS, LLC, priority 2012, dated 2017)
Where two headings read alike, the source gives them in different places.

Tests used:
Phospho-p70S6K (T389) = test: MSD assay, phospho-p70S6K (T389) in cell lysates; assay type: cell-based
Experimental: Determination of Phospho-p70S6K (T389) in Cell Lysates.
MSD® biomarker detection assays provide a rapid and convenient method for measuring the total and phosphorylated levels of protein targets within a single small-volume sample. In the assay, an antibody for a specific protein target is coated on one electrode (or spot) per well. The samples (cell lysates) are added to the well with a solution containing the detection antibody labeled with an electrochemiluminescent (ECL) compound, MSD SULFOTAG™ label, over the course of one or more incubation periods. The total protein present in the sample binds to the capture antibodies immobilized on the working electrode surface; recruitment of the labeled detection antibody by bound phospho-p70S6K completes the sandwich. MSD Read Buffer that provides the appropriate chemical environment for ECL is added and the plate is read using an MSD SECTOR™ Imager. Inside the SECTOR Imager, a voltage is applied to the plate electrodes which cause the labels bound to the electrode surface to emit light. The instrument measures intensity of the emitted light to afford a quantitative measure of the amount of phosphorylated protein present in the sample.
Cells were plated in 96-well flat bottom plates at the required density determined for each cell line and the cells were allowed to equilibrate at 37° C., 5% CO2 overnight. The following day, the cells were treated with Compound 1 over a range of concentrations for one hour in 5% CO2 at 37° C. After the incubation period, the culture medium was removed carefully with an aspirator. The plate was placed on ice and 50 μL of 1× Tris Lysis Buffer were added to each well. The plate was placed on a shaker at 4° C. for one hour to lyse the cells. At that point, the plate was either frozen at −80° C. for later analysis or immediately assayed for phosphoproteins as described below. To monitor interassay variability, Compound 1 was compared among all plates as a reference standard.
The assay plate was incubated with 150 μL of MSD Blocking Buffer for one hour with shaking at room temperature. The plates were washed 3 times with Tris Wash Buffer. Then 35 μL of cell lysate was added to the wells and incubated for one hour with shaking at room temperature. The solution was removed from the wells and the plate was washed 3 times with wash buffer. Twenty-five microliters of the appropriate antibody solution was then incubated for one hour with shaking at room temperature. The solution was removed from the wells and the plate was washed 3 times with wash buffer. Then 150 μL of 1×MSD Read Buffer T was added to each well. The plate was read on the SECTOR Imager plate reader.

GSK-3β = test: MSD assay, GSK-3β phosphorylation in cell lysates; assay type: cell-based
[1] = Homo sapiens, HCT-116, HCT116 cell line, IGF, read-out: MSD p70S6K (IGF)
[2] = Homo sapiens, U-87 MG, U87MG cell line, read-out: MSD p70S6K
[3] = Homo sapiens, HCT-116, HCT116 cell line, IGF, read-out: MSD GSK-3β (IGF)
[4] = Homo sapiens, U-87 MG, U87MG cell line, read-out: MSD GSK-3β
[5] = PC3 cell line, read-out: MSD p70S6K
[6] = PC3 cell line, read-out: MSD GSK-3β

Row | SMILES | IC50 (Phospho-p70S6K (T389); [5]) | IC50 (GSK-3β; [6]) | further results
1 | CO[C@H]1CC[C@H](N2C(=O)CNc3ncc(-c4ccc(-c5nnc[nH]5)nc4C)nc32)CC1 [A-11, 1-((1r,4r)-4-methoxycyclohexyl)-7-(2-methyl-6-(4H-1,2,4-triazol-3-yl)pyridin-3-yl)-3,4-dihydropyrazino[2,3-b]pyrazin-2(1H)-one] | – | – | IC50 (Phospho-p70S6K (T389); HCT116 cell line, IGF, read-out: MSD p70S6K (IGF)): 157 nM; IC50 (Phospho-p70S6K (T389); U87MG cell line, read-out: MSD p70S6K): 93.1 nM; IC50 (GSK-3β; HCT116 cell line, IGF, read-out: MSD GSK-3β (IGF)): 202 nM; IC50 (GSK-3β; U87MG cell line, read-out: MSD GSK-3β): 479 nM
2 | CCN1C(=O)CNc2ncc(-c3ccc(-c4nnc[nH]4)nc3C)nc21 [A-12, 1-ethyl-7-(2-methyl-6-(4H-1,2,4-triazol-3-yl)pyridin-3-yl)-3,4-dihydropyrazino[2,3-b]pyrazin-2(1H)-one] | – | – | IC50 (Phospho-p70S6K (T389); [1]): 846 nM; IC50 (Phospho-p70S6K (T389); [2]): 252 nM; IC50 (GSK-3β; [3]): > 2000 nM; IC50 (GSK-3β; [4]): > 2000 nM
3 | Cc1nc(-c2nnc[nH]2)ccc1-c1cnc2c(n1)N(C(C)C)C(=O)CN2 [A-13, 1-isopropyl-7-(2-methyl-6-(4H-1,2,4-triazol-3-yl)pyridin-3-yl)-3,4-dihydropyrazino[2,3-b]pyrazin-2(1H)-one] | – | – | IC50 (Phospho-p70S6K (T389); [1]): 941 nM; IC50 (Phospho-p70S6K (T389); [2]): 351 nM; IC50 (GSK-3β; [3]): > 2000 nM; IC50 (GSK-3β; [4]): > 2000 nM
4 | CO[C@H]1CC[C@@H](N2CC(=O)Nc3ncc(-c4ccc(-c5nc[nH]n5)c(F)c4C)nc32)CC1 [C-110] | 22 nM | > 150 nM | –
5 | COCCN1C(=O)CNc2ncc(-c3ccc(-c4cc[nH]n4)cc3)nc21 [C-112] | 36 nM | > 500 nM | –
6 | O=C1CNc2ncc(-c3ccc(O)nc3)nc2N1CCC1CCOCC1 [C-113] | > 500 nM | > 500 nM | –
7 | CNc1ccc(-c2cnc3c(n2)N(CCC2CCOCC2)C(=O)CN3)cn1 [C-114] | 184 nM | 2030 nM | –
8 | Nc1cc(-c2cnc3c(n2)N(CCC2CCOCC2)C(=O)CN3)ccn1 [C-115] | > 500 nM | > 500 nM | –
9 | Cc1cc(-c2nc[nH]n2)ncc1-c1cnc2c(n1)N(C(C)C)C(=O)CN2 [C-121] | – | 15 nM | –
10 | Cc1cc(-c2nc[nH]n2)c(F)cc1-c1cnc2c(n1)N(C1CCC(O)CC1)CC(=O)N2 (stereo not drawn) [C-123] | 13 nM | > 500 nM | –
11 | CCN1CC(=O)Nc2ncc(-c3ccc(-c4nc[nH]n4)nc3)nc21 [C-124] | 289 nM | > 500 nM | –
12 | CCN1C(=O)CNc2ncc(-c3cc(F)c(-c4nc[nH]n4)cc3C)nc21 [C-127] | 4 nM | 33 nM | –
13 | Cc1cc(-c2nc[nH]n2)c(F)cc1-c1cnc2c(n1)N(C(C)C)C(=O)CN2 [C-128] | 21 nM | 1 nM | –
14 | Cc1cc(-c2nc[nH]n2)c(F)cc1-c1cnc2c(n1)N([C@H]1CC[C@H](O)CC1)C(=O)CN2 [C-130] | < 0.835 nM | 12 nM | –
15 | COCCN1CC(=O)Nc2ncc(-c3cc(F)c(-c4nc[nH]n4)cc3C)nc21 [C-131] | 118 nM | > 500 nM | –
16 | COC1CCC(N2CC(=O)Nc3ncc(-c4ccc(-c5ncn[nH]5)nc4)nc32)CC1 (stereo not drawn) [C-136] | 82 nM | > 500 nM | –
17 | COC1CCC(N2C(=O)CNc3ncc(-c4cc(F)c(-c5ncn[nH]5)cc4C)nc32)CC1 (stereo not drawn) [C-137] | 52 nM | 394 nM | –
18 | CC(C)N1C(=O)CNc2ncc(-c3ccc(-c4ncn[nH]4)nc3)nc21 [C-138] | 40 nM | 181 nM | –
19 | COC1CCC(N2C(=O)CNc3ncc(-c4ccc(-c5ncn[nH]5)nc4)nc32)CC1 (stereo not drawn) [C-139] | 40 nM | > 500 nM | –
20 | Cc1cc(-c2nc[nH]n2)c(F)cc1-c1cnc2c(n1)N(CC1CCC(O)CC1)CC(=O)N2 (stereo not drawn) [C-143] | 4 nM | > 500 nM | –
21 | O=C1CN([C@H]2CC[C@H](O)CC2)c2nc(-c3ccc(-c4nc[nH]n4)nc3)cnc2N1 [C-144] | > 500 nM | > 500 nM | –
22 | O=C1CNc2ncc(-c3cccc4[nH]ccc34)nc2N1CCC1CCOCC1 [C-145] | > 500 nM | > 500 nM | –
23 | COC1CCC(N2CC(=O)Nc3ncc(-c4cc(F)c(-c5nc[nH]n5)cc4C)nc32)CC1 (stereo not drawn) [C-148] | < 1.5 nM | 65 nM | –
24 | O=C1CN(CC2CCC(O)CC2)c2nc(-c3ccc(-c4nc[nH]n4)nc3)cnc2N1 (stereo not drawn) [C-149] | 173 nM | > 5000 nM | –
25 | COCCN1C(=O)CNc2ncc(-c3ccc(-c4ncn[nH]4)nc3)nc21 [C-151] | 120 nM | > 500 nM | –
26 | O=C1CN(CC2CCC(O)CC2)c2nc(-c3ccc(-c4nc[nH]n4)nc3)cnc2N1 (stereo not drawn) [C-154] | 1520 nM | > 5000 nM | –
27 | COC1CCC(CN2CC(=O)Nc3ncc(-c4ccc(-c5ncn[nH]5)nc4)nc32)CC1 (stereo not drawn) [C-156] | 10 nM | – | –
28 | Cc1cc(-c2nc[nH]n2)c(F)cc1-c1cnc2c(n1)N(CC1CCC(O)CC1)CC(=O)N2 (stereo not drawn) [C-157] | 37 nM | – | –
29 | COC1CCC(CN2CC(=O)Nc3ncc(-c4ccc(-c5nc[nH]n5)nc4)nc32)CC1 (stereo not drawn) [C-158] | 36 nM | – | –
30 | COC1CCC(CN2C(=O)CNc3ncc(-c4ccc(-c5nc[nH]n5)nc4)nc32)CC1 (stereo not drawn) [C-159] | 6 nM | > 500 nM | –

More lines, main results first:

Row | IC50 (Phospho-p70S6K (T389); [5]) | IC50 (GSK-3β; [6]) | SMILES | further results
31 | 58 nM | > 150 nM | Cc1c(-c2cnc3c(n2)N(C2CCOCC2)CC(=O)N3)ccc(-c2nc[nH]n2)c1F [C-111] | –
32 | 303 nM | 3990 nM | Nc1ncc(-c2cnc3c(n2)N(CCC2CCOCC2)C(=O)CN3)cn1 [C-116] | –
33 | > 5000 nM | > 5000 nM | O=C1CNc2ncc(-c3cccc4[nH]ncc34)nc2N1CCC1CCOCC1 [C-117] | –
34 | 170 nM | 3930 nM | Cc1cc(C(N)=O)ncc1-c1cnc2c(n1)N(C(C)C)C(=O)CN2 [C-118] | –
35 | 10 nM | 323 nM | CCN1CC(=O)Nc2ncc(-c3cc(F)c(-c4nc[nH]n4)cc3C)nc21 [C-119] | –
36 | 12 nM | 99 nM | Cc1cc(-c2nc[nH]n2)c(F)cc1-c1cnc2c(n1)N(C(C)C)CC(=O)N2 [C-120] | –
37 | 6 nM | 323 nM | Cc1cc(-c2nc[nH]n2)c(F)cc1-c1cnc2c(n1)N(C1CCOCC1)CC(=O)N2 [C-122] | –
38 | 73 nM | > 500 nM | O=C1CN(C2CCOCC2)c2nc(-c3ccc(-c4ncn[nH]4)nc3)cnc2N1 [C-125] | –
39 | 480 nM | 1140 nM | O=C1CNc2ncc(-c3ccnc(O)c3)nc2N1CCC1CCOCC1 [C-126] | –
40 | 1 nM | > 500 nM | COCCN1C(=O)CNc2ncc(-c3cc(F)c(-c4nc[nH]n4)cc3C)nc21 [C-129] | –
41 | 222 nM | > 500 nM | COC1CCC(N2CC(=O)Nc3ncc(-c4cc(F)c(-c5ncn[nH]5)cc4C)nc32)CC1 (stereo not drawn) [C-132] | –
42 | 61 nM | > 500 nM | Cc1cc(-c2nc[nH]n2)c(F)cc1-c1cnc2c(n1)N(C1CCC(O)CC1)CC(=O)N2 (stereo not drawn) [C-133] | –
43 | 172 nM | > 500 nM | CC(C)N1CC(=O)Nc2ncc(-c3ccc(-c4nc[nH]n4)nc3)nc21 [C-134] | –
44 | > 1500 nM | > 1500 nM | COCCN1CC(=O)Nc2ncc(-c3ccc(-c4nc[nH]n4)nc3)nc21 [C-135] | –
45 | 70 nM | > 500 nM | O=C1CNc2ncc(-c3ccc(-c4nc[nH]n4)nc3)nc2N1C1CCC(O)CC1 (stereo not drawn) [C-140] | –
46 | 42 nM | – | O=C1CNc2ncc(-c3ccc(-c4nc[nH]n4)nc3)nc2N1CC1CCC(O)CC1 (stereo not drawn) [C-141] | –
47 | 18 nM | > 500 nM | Cc1cc(-c2nc[nH]n2)c(F)cc1-c1cnc2c(n1)N(CC1CCC(O)CC1)C(=O)CN2 (stereo not drawn) [C-142] | –
48 | 12 nM | > 500 nM | COC1CCC(N2CC(=O)Nc3ncc(-c4ccc(-c5ncn[nH]5)nc4)nc32)CC1 (stereo not drawn) [C-146] | –
49 | < 1.5 nM | > 500 nM | Cc1cc(-c2nc[nH]n2)c(F)cc1-c1cnc2c(n1)N(CC1CCC(O)CC1)C(=O)CN2 (stereo not drawn) [C-147] | –
50 | 38 nM | > 500 nM | CCN1C(=O)CNc2ncc(-c3ccc(-c4ncn[nH]4)nc3)nc21 [C-150] | –
51 | 20 nM | > 500 nM | O=C1CNc2ncc(-c3ccc(-c4nc[nH]n4)nc3)nc2N1C1CCOCC1 [C-152] | –
52 | > 500 nM | > 500 nM | O=C1CN(C2CCC(O)CC2)c2nc(-c3ccc(-c4nc[nH]n4)nc3)cnc2N1 (stereo not drawn) [C-153] | –
53 | 40 nM | 240 nM | Cc1cc(-c2nc[nH]n2)c(F)cc1-c1cnc2c(n1)N([C@H]1CC[C@@H](O)CC1)C(=O)CN2 [C-155] | –
54 | – | 3 nM | CO[C@H]1CC[C@@H](CN2C(=O)CNc3ncc(-c4ccc(-c5nc[nH]n5)nc4)nc32)CC1 [C-165] | –
